How the values were obtained:
Assay type in all cases: physicochemical
[1] = Solubility in DMSO and water
[2] = In vitro release of acriflavine from SMP foams into PBS at 37° C., fluorescence of supernatants
Experimental: An embodiment includes a method for creating a drug-eluting SMP foam. The method includes incubating the foam in a 0.017 mg/mL acriflavine solution (e.g., 1 mg/mL in acriflavine solution dimethyl sulfoxide (DMSO)) that is mixed with varying PVA solutions of 0%, 1%, 2%, 3%, 10% (wt./vol) overnight on a rotator at room temperature (n=3). Different PVA concentrations may be used to increase drug viscosity and drug uptake onto or into the foam. In other embodiments PVA is held constant and acriflavine concentrations are varied (which changes the PVA viscosity). Foams may then be removed from the respective drug/PVA solutions and dried in a vacuum chamber for 5 days. The foams may then be incubated in 0.4 mL phosphate-buffered saline (PBS) at 37° C. Supernatants may be removed at various time points and measured for fluorescence at 416/514 nm (Ex/Em). Regarding in vitro release of acriflavine from HDI-based SMP foams, see FIG. 1. […] This may be because of the increased loading of acriflavine that is due to PVA (and PVA's affinity for the foam). […] In vitro release of acriflavine from non-reticulated TMHDI 60 foam is addressed in FIG. 3.

[3] = Drug uptake (loading) onto or into SMP foam from drug/PVA solutions
Experimental: An embodiment includes a method for creating a drug-eluting SMP foam. The method includes incubating the foam in a 0.017 mg/mL acriflavine solution (e.g., 1 mg/mL in acriflavine solution dimethyl sulfoxide (DMSO)) that is mixed with varying PVA solutions of 0%, 1%, 2%, 3%, 10% (wt./vol) overnight on a rotator at room temperature (n=3). Different PVA concentrations may be used to increase drug viscosity and drug uptake onto or into the foam. In other embodiments PVA is held constant and acriflavine concentrations are varied (which changes the PVA viscosity). Foams may then be removed from the respective drug/PVA solutions and dried in a vacuum chamber for 5 days. The foams may then be incubated in 0.4 mL phosphate-buffered saline (PBS) at 37° C. Supernatants may be removed at various time points and measured for fluorescence at 416/514 nm (Ex/Em). In an embodiment acriflavine is used as a cargo in the free drug form (which helps illustrate the release profile for drug solutions with different PVA concentrations). […] This may be due, at least in part, to the increased viscosity of the drug when combined with PVA, which enables the drug to be trapped within or on the pores present in the foam. […]

| solubility [1] | release profile ([2]; drug solution with 0% PVA) | release profile ([2]; solutions with higher PVA concentrations) | drug uptake onto or into the foam ([3]; drug solution without PVA (0% PVA), compared to solutions with increasing PVA concentration) | drug uptake onto or into the foam ([3]; increasing PVA concentrations, FIGS. 1, 2, 3) | Molecule | acriflavine release from SMP foams (non-cumulative release curve) ([2]; HDI-based SMP foams, FIG. 1, increasing PVA concentration) | acriflavine release from SMP foams (non-cumulative release curve) ([2]; non-reticulated TMHDI 60 (TH60) SMP foams, FIG. 3, increasing PVA concentration) | acriflavine release from SMP foams (non-cumulative release curve) ([2]; reticulated HH80 SMP foams, FIG. 2, increasing PVA concentration) |
| --- | --- | --- | --- | --- | --- | --- | --- | --- |
| soluble in both DMSO and water | – | – | – | – | COc1cccc2c1C(=O)c1c(O)c3c(c(O)c1C2=O)C[C@@](O)(C(=O)CO)C[C@@H]3O[C@H]1C[C@H](N)[C@H](O)[C@H](C)O1 [Doxorubicin] | – | – | – |
| soluble in both DMSO and water | delayed burst release | immediate release | less drug uptake | increased drug uptake | Acriflavine | increases (or at least differs) with increasing PVA concentration | increased (or at least differs) with increasing PVA concentration | increased (or at least differs) with increasing PVA concentration |
